# US20130209543A1, “ENHANCED TREATMENT REGIMENS USING MTOR INHIBITORS” (Intellikine LLC, priority 2011, published 2013)
# System: TORC1 (p4EBP1 and pS6) and TORC2 (pPRAS40)
# Assay: Human skin immunohistochemistry assay (skin biopsies, pathway inhibition)
# Format: in vivo
# Conditions: 6 mg QD, read-out: PD (% inhibition, H score) Skin: 4EBP1/PRAS40
# Experimental: Human Skin Immunohistochemistry Assay.
# Skin tissue was fixed in 10% neutral-buffered formalin solution for 24 hours and then processed and embedded in paraffin block. Sections (4 μm) were cut and mounted onto microscopic slides. Sections were incubated with primary antibodies (p4EBP1, pS6, or pRAS40) overnight and developed using a chromogenic substrate.
# Pharmacodynamic (PD) endpoints were evaluated in surrogate (peripheral blood cells [PBCs], skin) and tumor tissues for the phosphorylation of TORC1-dependent markers (4EBP1/S6), and TORC2-dependent markers (AKT/PRAS40). 50 patients were treated in 3 intermittent dosing regimens; 21 in 6 cohorts ranging 7-40 mg QW, 20 in 5 cohorts ranging 6-20 mg QD×3d QW, and 9 in 3 cohorts ranging 7-13 mg QD×5d QW. […] The MTD for intermittent dosing was not reached. All adverse events (AEs) reported were reversible. The most common (≧20%, n=35) AEs considered possibly related to compound A reported in all 3 dosing regimens included nausea (51%), hyperglycemia (37%), mucosal inflammation (29%), rash (23%), asthenia (23%), vomiting (26%), and diarrhea (20%). The majority of AEs considered possibly related to compound A in any regimen were Grade 1 or 2. The only reported Grade≧3 AE (≧5%) possibly related to compound A in 3 regimens was lymphopenia (6%). Tables 4-9 show summaries of observed adverse events for various treatment regimens of the invention.
smiles,measurement,value
CC(C)n1nc(-c2ccc3oc(N)nc3c2)c2c(N)ncnc21 [compound A],inhibition at 6 mg,60%
